Columns and labels:
[1] = test system: HSV-1; experiment: qPCR of viral genome replication in HSV-1 infected HCE cells; type: cell-based, HSV-1 (KOS strain); conditions: MOI 0.1, inhibitor 10 μM
Protocol: All cells were cultured at 37° C. and 5% CO2, and supplemented with 100 U/ml penicillin and 100 μg/ml streptomycin. Human corneal epithelial cells immortalized with hTERT (hTCEpi; Bahassi et al., 2008, Oncogene 27:3977-3985) were grown in complete KGM-2 medium. Human corneal epithelial cells immortalized with SV40 large T antigen (HCE; Araski-Sasaki et al., 1995, Invest. Ophthalmol. Visual Sci. 36:614-621), as well as African green monkey kidney fibroblasts (CV-1; Jensen et al., 1964, Proc. Natl. Acad. Sci. USA 52:53-59), were grown in DMEM medium supplemented with 10% FBS. KOS strain (Smith, Proc. Soc. Exp. Biol. Med. Soc. Exp. Biol. Med. 115:814-816) of HSV-1 was used in all infections. All viral stocks were titered on CV-1 monolayers.
Tetracyline-inducible Chk2 knockdown cell line was derived by lentivirally transducing HCE cells with a construct harboring shRNA sequence against the Chk2 transcript. The Chk2 shRNA sequence was acquired from Sigma (NM_007194.2-129951c1) and targets the following region: 5′-[…]-3′ (SEQ ID NO:1). Lentiviral particles were produced in 293T packaging cells (Dull et al., 1998, J. Virol. 72:8463-8471). […]
Total DNA from infected cells and corneas was isolated using the DNeasy Blood & Tissue Kit (QIAGEN, Hilden, Germany). Real time quantitative PCR was performed with SYBR Green (Bio-Rad, Hercules, Calif.). […]

[2] = test system: dlsptk strain of HSV-1 (TK mutant); experiment: qPCR of genome replication of drug-resistant HSV-1 in hTCEpi cells; type: cell-based
Protocol: All cells were cultured at 37° C. and 5% CO2 and supplemented with 100 U/mL penicillin and […]. Human corneal epithelial cells immortalized with hTERT (hTCEpi; Robertson, et al., 2005, Invest Ophthalmol Vis Sci. 46:470-478) were grown in complete keratinocyte growth medium 2 (KGM-2; Lonza, Basel, Switzerland). African green monkey kidney fibroblasts (CV-1; American Type Culture Collection, Manassas, Va.) were grown in Dulbecco's modified Eagle's medium (DMEM; Cellgro, Manassas, Va.) supplemented with 10% FBS. The KOS strain of HSV-1 was used in the in vitro and ex vivo infections, whereas McKrae strain was used for in vivo mouse experiments, and TK mutant dlsptk strain (Coen et al., 1989, Proc Natl Acad Sci USA 86:4736-4740) was used in the drug resistance experiments. All viral stocks were titered on CV-1 monolayers.
The following strains of HSV-1 were used: KOS, ICPO-null, HFEM, and tsB7. Subconfluent monolayers of cells were grown in six-well plates. Drug treatments were administered 45 minutes prior to infection and continued for the entire duration of each experiment. Unless indicated otherwise, KU-55933 (Batch No. 5, 99.7% purity; Tocris Bioscience, Bristol, UK) was used at 10 μM final concentration, phosphonoacetic acid (PAA) at 400 μg/mL (Sigma-Aldrich, St. Louis, Mo.), and acyclovir at 50 μg/mL (Sigma-Aldrich). KU-55933 was dissolved in dimethyl sulfoxide (DMSO), and the final concentration of DMSO in both KU-55933 and mock treatment in the in vitro and the ex vivo experiments was 0.1%.
Viral genome replication and transcription were measured by quantitative PCR (qPCR). Total DNA and RNA from infected cells were isolated using the DNeasy Blood & Tissue Kit and the RNeasy Mini Kit, respectively (QIAGEN, Hilden, Germany). RNA was converted to cDNA using qScript (Quanta BioSciences, Gaithersburg, Md.). […] Transcription of the three gene families was measured with primers for RL2 (ICPO), UL30 (DNA polymerase catalytic subunit), and UL44 (gC), with reference primers for the 18S ribosomal RNA (rRNA).

SMILES	viral genome replication (qPCR) [1]	genome replication of dlsptk strain (qPCR) ([2]; MOI 0.1, 16 hpi, KU-55933 10 μM, acyclovir 50 μg/mL)	inhibitory effect on dlsptk infection compared with KOS infection ([2]; MOI 0.1, KU-55933 10 μM, 16 hpi)
NC(=O)c1ccc2[nH]c(-c3ccc(Oc4ccc(Cl)cc4)cc3)nc2c1 [Chk2 inhibitor II, 2-(4-(4-chlorophenoxy)phenyl)-1H-benzimidazole-5-carboxamide]	profoundly reduced		
O=c1cc(-c2cccc3c2Sc2ccccc2S3)oc(N2CCOCC2)c1 [KU-55933, 2-(morpholin-4-yl)-6-(thianthren-1-yl)-pyran-4-one]		markedly suppress	as potent as its effect on KOS infection

— patent US20210023089A1, “Compositions Useful for Treating Herpes Simplex Keratitis, and Methods Using Same” (priority 2013, published 2021)
